Experimental data: US20250129082A1, “N-1 Triazole Substituted Imidazoquinolines, Conjugates Thereof, and Methods” (Solventumn Intellectual Properties Company, priority 2021, published 2025)

Key:
Format in all cases: cell-based
[1] = tested on: Human peripheral blood mononuclear cells (PBMC); assay: Cytokine induction in human cells (PBMC), Ella Simple Plex ELISA; details: 21-24 hours, tested 0.01-30 micromolar; for MEC to Induce Cytokine, IFN-alpha: lowest concentration inducing IFN-alpha at least 2× negative control; for MEC to Induce Cytokine, IFN-gamma: lowest concentration inducing IFN-gamma at least 2× negative control; for MEC to Induce Cytokine, TNF-alpha: lowest concentration inducing TNF-alpha at least 2× negative control
Description: Whole blood was obtained from healthy human donors and collected by venipuncture into vacutainer tubes or syringes containing EDTA. Human peripheral blood mononuclear cells (PBMC) were purified from the whole blood by density gradient centrifugation. Histopaque 1077 (15 mL, Sigma-Aldrich) was transferred to 6×50 mL sterile polypropylene conical tubes. The Histopaque was overlayed with 15-25 mL of blood diluted 1:2 in Hank's Balanced Salts Solution (HBSS) (Gibco, Life Technologies, Grand Island, NY). The tubes were then centrifuged at 1370 rpm for 30 minutes at 20° C., with no brake (400λg, GH 3.8A Rotor).
The interface (buffy coat) containing the PBMC was collected and placed in a new sterile 50 mL conical polypropylene centrifuge tube. The PBMC were mixed with an equal volume of HBSS (about 20 mL from the interface and about 20 mL of HBSS), and then centrifuged at 1090 rpm, 10 minutes, 20° C., with brake (270λg, GH 3.8A Rotor). After completing centrifugation, the cells were resuspended in 2-3 mL ACK Red blood cell lysis buffer (ammonium chloride potassium solution, Gibco, Life Technologies) and incubated for 2-5 minutes at 20° C. Next, HBSS (40 mL) was added to the cells, and the sample was centrifuged at 270×g for 10 minutes at 20° C. The supernatant was decanted, and the cell pellet was resuspended in 5 mL AIM V Medium (Gibco, Life Technologies). Cell aggregates and debris were removed by filtering the cell solution through a BD Falcon 70 micron nylon cell strainer (BD Biosciences, San Jose, CA).
The number of viable cells was determined by counting with a Moxi Z instrument (ORFLO Technologies, Ketchum, ID) or by using a hemacytometer. For determining cell viability with a hemacytometer, the cells were diluted 1/10 in 0.4% trypan blue and HBSS (specifically, 50 microliter of trypan blue+40 microliter of HBSS+10 microliter of cell solution were added to a microfuge tube and mixed). Ten microliters of the diluted cells were then applied to the hemacytometer, and the number of viable PBMC were determined by microscopy.
The PBMC sample was then resuspended in 96-well plates at a concentration of 8×10^5 cells/well in 0.1 mL of AIM-V medium. Each compound was solubilized in DMSO to create a 3 mM stock solution. The stock solution was then further diluted with AIM-V medium to prepare the serial dilutions. The diluted compound (100 microliters) was then transferred to the PBMCs to produce testing sets with final compound concentrations of 30, 10, 3.3, 1.1, 0.37, 0.12, 0.04, 0.01 micromolar. The plates also had both positive and negative controls. The negative control wells contained only AIM-V medium with no example compound. The positive control wells contained a control set of imiquimod serially diluted to concentrations of 30, 10, 3.3, 1.1, 0.37, 0.12, 0.04, 0.01 micromolar. The concentrations used in the control set were selected to match the concentrations used in the testing set. The plates were then cultured at 37° C./5% CO2 for 21-24 hours. Cell-free supernatants were harvested by centrifuging the 96-well plates at 2100 rpm, 23° C. for 10 minutes. Approximately 160 microliters of the supernatant was then stored in a NUNC 96-well plate, covered with the compression cap and stored at −80° C. until the cytokine analysis was done.
Cytokine levels (human IFN-alpha multisubtype, human IFN-gamma, and human TNF-alpha) were measured in picograms/mL by Ella Simple Plex ELISA (ProteinSimple, San Jose, CA) according to the manufacturer's instructions.
Specifically, the minimum effective concentration of each compound (micromolar) was determined as the lowest concentration of the compound that induced a measured cytokine response at a level ([…]) that was at least 2× greater than that observed with the negative control wells.

human TLR7 = biological target: T1, human TLR7 (Homo sapiens, UniProt Q9NYK1); assay: TLR activation and specificity, HEK-BLUE-hTLR7 SEAP reporter cells; details: 16-20 hours, lowest concentration giving SEAP response at least 2× vehicle control, tested 0.01-30 micromolar
T1 construct: host or cells: HEK293 (HEK-BLUE-hTLR7)
T1 sequence (Q9NYK1 27-1049): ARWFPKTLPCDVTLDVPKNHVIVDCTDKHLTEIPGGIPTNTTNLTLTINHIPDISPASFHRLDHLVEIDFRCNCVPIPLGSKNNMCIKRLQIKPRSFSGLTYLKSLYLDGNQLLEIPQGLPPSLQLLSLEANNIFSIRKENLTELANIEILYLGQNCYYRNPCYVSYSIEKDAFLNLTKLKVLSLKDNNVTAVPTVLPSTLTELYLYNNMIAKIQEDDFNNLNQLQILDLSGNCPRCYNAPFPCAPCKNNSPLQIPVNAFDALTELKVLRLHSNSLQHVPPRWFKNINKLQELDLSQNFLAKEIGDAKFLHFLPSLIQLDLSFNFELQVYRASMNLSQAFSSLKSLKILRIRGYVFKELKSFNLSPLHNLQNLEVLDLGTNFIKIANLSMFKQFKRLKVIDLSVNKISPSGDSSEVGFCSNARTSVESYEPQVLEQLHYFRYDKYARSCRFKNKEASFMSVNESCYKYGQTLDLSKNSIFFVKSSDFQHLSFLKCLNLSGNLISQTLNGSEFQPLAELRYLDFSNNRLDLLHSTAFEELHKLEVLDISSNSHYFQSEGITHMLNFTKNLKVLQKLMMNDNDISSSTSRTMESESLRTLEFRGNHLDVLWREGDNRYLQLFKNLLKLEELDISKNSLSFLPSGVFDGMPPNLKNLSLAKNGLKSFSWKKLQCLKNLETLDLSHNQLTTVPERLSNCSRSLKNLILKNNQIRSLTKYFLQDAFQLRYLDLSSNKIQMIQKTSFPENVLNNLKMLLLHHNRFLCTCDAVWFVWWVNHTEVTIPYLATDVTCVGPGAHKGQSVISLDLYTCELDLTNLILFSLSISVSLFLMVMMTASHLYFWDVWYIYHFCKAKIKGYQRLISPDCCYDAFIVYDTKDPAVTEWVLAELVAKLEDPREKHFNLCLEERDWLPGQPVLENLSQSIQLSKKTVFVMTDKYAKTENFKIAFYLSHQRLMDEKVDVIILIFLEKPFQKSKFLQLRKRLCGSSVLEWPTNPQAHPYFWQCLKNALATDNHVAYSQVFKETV
Description: (§1) HEK-BLUE-hTLR7 or hTLR8 reporter cells were obtained from InvivoGen, San Diego, CA. According to the manufacturer's description, these reporter cells were prepared by co-transfection of HEK293 cells with an inducible secreted embryonic alkaline phosphatase (SEAP) reporter gene and either the human TLR7 or TLR8 gene. The SEAP reporter gene was placed under the control of an IFN-β minimal promoter fused to five NF-κB and AP-1-binding sites. In the presence of a TLR ligand, activation of NF-κB and AP-1 occurs, resulting in a corresponding increase in SEAP levels.
(§2) In the assay, the HEK cells were grown and maintained using standard cell culture techniques in a growth medium that contained Dulbecco's Modified Eagle Medium (ThermoFisher Scientific Incorporated, Waltham, MA) supplemented with 1% penicillin/streptomycin and 10% heat-inactivated Gibco fetal bovine serum (ThermoFisher Scientific). Each compound was solubilized in DMSO to create a 3 mM stock solution. The stock solution was then further diluted with the growth medium to prepare serial dilutions. Each test compound was tested at a concentration of 30, 10, 3.3, 1.1, 0.37, 0.12, 0.04, and 0.01 micromolar using a 96-well format with 5×10^4 cells and 200 microliters of growth medium per well.
(§3) For each compound, hTLR7, hTLR8, and their respective null control HEK cells were screened. DMSO serially diluted into the growth medium served as the vehicle control. Cell culture supernatants containing the SEAP reporter were collected after an incubation period of 16-20 hours in a cell culture incubator (37° C. and 5% CO2), and either analyzed immediately or stored at −80° C. SEAP levels were measured using the colorimetric enzyme assay (QUANTI-BLUE (InvivoGen) according to manufacturer's instructions.
(§4) Specifically, the minimum effective concentration of each compound (micromolar) was determined as the lowest concentration of the compound that produced a SEAP expression response at least 2× greater than that observed with the vehicle control wells.

human TLR8 = biological target: T2, human TLR8 (Homo sapiens, UniProt Q9NR97); assay: TLR activation and specificity, HEK-BLUE-hTLR8 SEAP reporter cells; details: 16-20 hours, lowest concentration giving SEAP response at least 2× vehicle control, tested 0.01-30 micromolar
T2 construct: host or cells: HEK293 (HEK-BLUE-hTLR8)
T2 sequence (Q9NR97 27-1041): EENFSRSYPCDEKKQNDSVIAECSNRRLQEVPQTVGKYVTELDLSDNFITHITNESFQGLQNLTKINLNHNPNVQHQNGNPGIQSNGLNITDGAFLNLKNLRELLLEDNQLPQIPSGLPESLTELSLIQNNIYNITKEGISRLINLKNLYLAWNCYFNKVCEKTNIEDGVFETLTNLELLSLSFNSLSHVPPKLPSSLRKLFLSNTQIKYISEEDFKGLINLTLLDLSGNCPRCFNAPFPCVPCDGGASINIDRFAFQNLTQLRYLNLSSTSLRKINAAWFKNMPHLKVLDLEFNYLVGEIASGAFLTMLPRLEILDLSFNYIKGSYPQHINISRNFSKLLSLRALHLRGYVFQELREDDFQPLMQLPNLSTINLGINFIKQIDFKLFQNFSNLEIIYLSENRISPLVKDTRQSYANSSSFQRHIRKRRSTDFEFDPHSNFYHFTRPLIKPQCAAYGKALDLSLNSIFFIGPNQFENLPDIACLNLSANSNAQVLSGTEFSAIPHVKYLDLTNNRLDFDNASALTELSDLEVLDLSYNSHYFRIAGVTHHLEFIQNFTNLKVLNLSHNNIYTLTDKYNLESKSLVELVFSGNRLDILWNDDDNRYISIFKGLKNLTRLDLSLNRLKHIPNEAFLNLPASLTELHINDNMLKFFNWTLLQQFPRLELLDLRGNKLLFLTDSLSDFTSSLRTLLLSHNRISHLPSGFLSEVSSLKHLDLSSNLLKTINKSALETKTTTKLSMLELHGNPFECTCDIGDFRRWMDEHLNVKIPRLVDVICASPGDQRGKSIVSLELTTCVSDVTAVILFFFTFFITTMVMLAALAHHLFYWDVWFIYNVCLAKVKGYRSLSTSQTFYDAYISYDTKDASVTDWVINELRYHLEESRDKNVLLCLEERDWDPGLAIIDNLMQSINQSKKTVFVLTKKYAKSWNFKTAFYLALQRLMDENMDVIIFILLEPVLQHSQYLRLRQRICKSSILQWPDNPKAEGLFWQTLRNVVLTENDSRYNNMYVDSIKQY
Description: as §1, §2, §3, §4

Row | Compound | MEC to Induce Cytokine, IFN-alpha [1] | MEC to Induce Cytokine, IFN-gamma [1] | MEC to Induce Cytokine, TNF-alpha [1] | MEC to Produce TLR Activation, TLR 7 (human TLR7) | MEC to Produce TLR Activation, TLR 8 (human TLR8)
1 | CCOC[C@H](Cc1ccc(OCCN=[N+]=[N-])cc1)n1cnc2c(N)nc3ccccc3c21 [Example 1, (S)-1-(1-(4-(2-azidoethoxy)phenyl)-3-ethoxypropan-2-yl)-1H-imidazo[4,5-c]quinolin-4-amine] | ≤0.01 µM | ≤0.01 µM | ≤0.01 µM | ≤0.01 µM | 10 µM
2 | CCOC[C@H](Cc1ccc(OCCn2cc(-c3ccccc3)nn2)cc1)n1cnc2c(N)nc3ccccc3c21 [Example 2, (S)-1-(1-ethoxy-3-(4-(2-(4-phenyl-1H-1,2,3-triazol-1-yl)ethoxy)phenyl)propan-2-yl)-1H-imidazo[4,5-c]quinolin-4-amine] | ≤0.01 µM | ≤0.01 µM | ≤0.01 µM | ≤0.01 µM | 3.3 µM
3 | CCOC[C@H](Cc1ccc(OCCCCCCCCCCCN=[N+]=[N-])cc1)n1cnc2c(N)nc3ccccc3c21 [Example 3, (S)-1-(1-(4-((11-azidoundecyl)oxy)phenyl)-3-ethoxypropan-2-yl)-1H-imidazo[4,5-c]quinolin-4-amine] | 3.3 µM | >30 µM | 1.1 µM | 1.1 µM | >30 µM
4 | CCOC[C@H](Cc1ccc(OCCCCCCCCCCCn2cc(-c3ccccc3)nn2)cc1)n1cnc2c(N)nc3ccccc3c21 [Example 4, (S)-1-(1-ethoxy-3-(4-((11-(4-phenyl-1H-1,2,3-triazol-1-yl)undecyl)oxy)phenyl)propan-2-yl)-1H-imidazo[4,5-c]quinolin-4-amine] | 3.3 µM | 10 µM | 3.3 µM | 3.3 µM | 3.3 µM
